In patent US20240132484A1, “BROAD SPECTRUM ANTIVIRAL COMPOUNDS TARGETING THE SKI COMPLEX” (priority 2020, published 2024):
Entries after “also recorded” stand apart in the source; their conditions may differ.

Key:
Influenza virus = assay: organism not typed; type: cell-based, influenza A virus
MERS-CoV = assay: microbe, parasite or virus in culture; type: cell-based; settings: Middle East respiratory syndrome-related coronavirus, Huh-7, 24 h, read-out: IC50 against MERS-CoV
SARS-CoV = type: cell-based; settings: 24 h
SARS-CoV-2 = type: cell-based
IAV NS1 mRNA = type: cell-based, influenza A virus
IAV RNA = assay: Multi-segment RT-PCR (M-RTPCR) of IAV segments in A549 cells; type: cell-based, influenza A virus
IAV NS1 protein = type: cell-based, influenza A virus
[1] = tested on: SARS-CoV-2 mRNA (N, RdRp); type: cell-based; settings: two gene targets (N, RdRp)

## COc1ccc(CNCCc2ccccc2C)c(OCC(O)CN2CCN(C)CC2)c1 (centres unmarked) [UMB18-2]
Influenza virus; +2 h versus -2 h and 0 h
  time of addition: inhibition of IAV when drug added 2 h after infection: marked reduction in the level of inhibition
Influenza virus; A549, 24 h, read-out: IC50 against IAV
  IC50: ~5 µM
Influenza virus; screening, A549 cells
  antiviral activity against IAV infection: capable of inhibiting IAV infection
MERS-CoV
  IC50: ~5 µM
SARS-CoV; 10 μM
  inhibition of SARS-CoV: inhibition, but to a lesser extent
SARS-CoV; 50 μM
  reduction in virus production: 1 log
SARS-CoV-2
  inhibition of SARS-CoV-2 virus production by TCID50: capable of inhibiting virus production; also recorded: less so
IAV NS1 mRNA
  IAV NS1 mRNA: marked reduction in mRNA
IAV RNA
  IAV RNA amplified by M-RTPCR: total loss of IAV RNA
IAV NS1 protein
  NS1 protein by western blot: lack of NS1 protein
[1]
  SARS-CoV-2 mRNA production: capable of inhibiting SARS-CoV-2 mRNA production
